Source: the supplement of paper PMC10307832

Tests used:
Assay in all cases: relative viability (nuclei count vs DMSO), 5 days (fraction); higher = more cells survive
PC-14 = test system: PC-14
How it was run: (§1)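 One day after seeding in 1536-well plates, lung cancer cell lines were dosed by pin tool. Dosing was either single-drug or a fixed anchor-drug dose plus five library-drug doses (not always all listed) in √10 steps. After 5 days, nuclei were stained in one fix-and-stain step and counted on 4× images, and relative viability is the nuclei count of treated wells over that of vehicle wells, given as the median of duplicate plates.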

NCI-H1355 = test system: NCI-H1355
How it was run: as §1

A-427 = test system: A-427
How it was run: as §1

NCI-H2087 = test system: NCI-H2087
How it was run: as §1

NCI-H1395 = test system: NCI-H1395
How it was run: as §1

PC-3 [JPC-3] = test system: PC-3 [JPC-3]
How it was run: as §1

NCI-H1792 = test system: NCI-H1792
How it was run: as §1

NCI-H322M = test system: NCI-H322M
How it was run: as §1

NCI-H1666 = test system: NCI-H1666
How it was run: as §1

LCLC-97TM1 = test system: LCLC-97TM1
How it was run: as §1

NCI-H1915 = test system: NCI-H1915
How it was run: as §1

NCI-H1651 = test system: NCI-H1651
How it was run: as §1

LK-2 = test system: LK-2
How it was run: as §1

NCI-H2085 = test system: NCI-H2085
How it was run: as §1

H3255 = test system: H3255
How it was run: as §1

ABC-1 = test system: ABC-1
How it was run: as §1

CAL-12T = test system: CAL-12T
How it was run: as §1

NCI-H838 = test system: NCI-H838
How it was run: as §1

NCI-H358 = test system: NCI-H358
How it was run: as §1

Work on `O=C(O)CCCCC(CCSCc1ccccc1)SCc1ccccc1` (stereo not drawn) [CPI-613] + NC(=O)Nc1cc(-c2cccc(F)c2)sc1C(=O)N[C@H]1CCCNC1 [AZD7762] (partner 0.2 µM) yielded a relative viability (PC-14; first compound 5 µM) of 0.349, a relative viability (PC-14; first compound 15.81 µM) of 0.252 and a relative viability (PC-14; first compound 50 µM) of 0.296. The relative viability (PC-14; first compound 158.11 µM) was 0.256, the relative viability (PC-14; first compound 500 µM) was 0.16 and the relative viability (NCI-H1355; first compound 5 µM) was 0.721. For the same compound, the relative viability (NCI-H1355; first compound 15.81 µM) was 0.741, the relative viability (NCI-H1355; first compound 50 µM) was 0.772 and the relative viability (NCI-H1355; first compound 158.11 µM) was 0.52. It also gave a relative viability (NCI-H1355; first compound 500 µM) of 0.185, a relative viability (A-427; first compound 5 µM) of 0.66 and a relative viability (A-427; first compound 15.81 µM) of 0.642. The relative viability (A-427; first compound 50 µM) was 0.661, the relative viability (A-427; first compound 158.11 µM) was 0.326 and the relative viability (A-427; first compound 500 µM) was 0.173. The relative viability (NCI-H2087; first compound 5 µM) was 1.4, the relative viability (NCI-H2087; first compound 15.81 µM) was 0.87 and the relative viability (NCI-H2087; first compound 50 µM) was 1.16. It also gave a relative viability (NCI-H2087; first compound 158.11 µM) of 0.446, a relative viability (NCI-H2087; first compound 500 µM) of 0.01 and a relative viability (NCI-H1395; first compound 5 µM) of 0.42. It also gave a relative viability (NCI-H1395; first compound 15.81 µM) of 0.403, a relative viability (NCI-H1395; first compound 50 µM) of 0.381 and a relative viability (NCI-H1395; first compound 158.11 µM) of 0.4. The relative viability (NCI-H1395; first compound 500 µM) was 0.327, the relative viability (PC-3 [JPC-3]; first compound 5 µM) was 0.777 and the relative viability (PC-3 [JPC-3]; first compound 50 µM) was 0.909. The relative viability (PC-3 [JPC-3]; first compound 158.11 µM) was 0.464, the relative viability (PC-3 [JPC-3]; first compound 500 µM) was 0.114 and the relative viability (NCI-H1792; first compound 5 µM) was 0.691. For the same compound, the relative viability (NCI-H1792; first compound 15.81 µM) was 0.616, the relative viability (NCI-H1792; first compound 50 µM) was 0.57 and the relative viability (NCI-H1792; first compound 158.11 µM) was 0.135. For the same compound, the relative viability (NCI-H1792; first compound 500 µM) was 0.047, the relative viability (NCI-H322M; first compound 5 µM) was 0.547 and the relative viability (NCI-H322M; first compound 15.81 µM) was 0.508. The relative viability (NCI-H322M; first compound 50 µM) was 0.606, the relative viability (NCI-H322M; first compound 158.11 µM) was 0.638 and the relative viability (NCI-H322M; first compound 500 µM) was 0.269. It also gave a relative viability (NCI-H1666; first compound 5 µM) of 0.911, a relative viability (NCI-H1666; first compound 15.81 µM) of 0.821 and a relative viability (NCI-H1666; first compound 50 µM) of 0.761. For the same compound, the relative viability (NCI-H1666; first compound 158.11 µM) was 0.376, the relative viability (NCI-H1666; first compound 500 µM) was 0.553 and the relative viability (LCLC-97TM1; first compound 5 µM) was 0.293. The relative viability (LCLC-97TM1; first compound 15.81 µM) was 0.225, the relative viability (LCLC-97TM1; first compound 50 µM) was 0.229 and the relative viability (LCLC-97TM1; first compound 158.11 µM) was 0.125. The relative viability (LCLC-97TM1; first compound 500 µM) was 0.0538, the relative viability (NCI-H1915; first compound 5 µM) was 0.684 and the relative viability (NCI-H1915; first compound 15.81 µM) was 0.639. It also gave a relative viability (NCI-H1915; first compound 50 µM) of 0.627, a relative viability (NCI-H1915; first compound 158.11 µM) of 0.535 and a relative viability (NCI-H1915; first compound 500 µM) of 0.303. The relative viability (NCI-H1651; first compound 5 µM) was 0.484, the relative viability (NCI-H1651; first compound 15.81 µM) was 0.421 and the relative viability (NCI-H1651; first compound 50 µM) was 0.421. For the same compound, the relative viability (NCI-H1651; first compound 158.11 µM) was 0.317, the relative viability (NCI-H1651; first compound 500 µM) was 0.45 and the relative viability (LK-2; first compound 5 µM) was 0.408. The relative viability (LK-2; first compound 15.81 µM) was 0.359, the relative viability (LK-2; first compound 50 µM) was 0.343 and the relative viability (LK-2; first compound 158.11 µM) was 0.355. For the same compound, the relative viability (LK-2; first compound 500 µM) was 0.289, the relative viability (NCI-H2085; first compound 5 µM) was 0.895 and the relative viability (NCI-H2085; first compound 15.81 µM) was 0.785. The relative viability (NCI-H2085; first compound 50 µM) was 0.895, the relative viability (NCI-H2085; first compound 158.11 µM) was 0.856 and the relative viability (NCI-H2085; first compound 500 µM) was 0.209. It also gave a relative viability (H3255; first compound 5 µM) of 0.816, a relative viability (H3255; first compound 15.81 µM) of 0.847 and a relative viability (H3255; first compound 50 µM) of 0.833. For the same compound, the relative viability (H3255; first compound 158.11 µM) was 0.733, the relative viability (H3255; first compound 500 µM) was 0.853 and the relative viability (ABC-1; first compound 5 µM) was 1.18. It also gave a relative viability (ABC-1; first compound 15.81 µM) of 0.696, a relative viability (ABC-1; first compound 158.11 µM) of 0.471 and a relative viability (ABC-1; first compound 500 µM) of 0.71. For the same compound, the relative viability (CAL-12T; first compound 5 µM) was 0.624, the relative viability (CAL-12T; first compound 15.81 µM) was 0.457 and the relative viability (CAL-12T; first compound 50 µM) was 0.509. The relative viability (CAL-12T; first compound 158.11 µM) was 0.541, the relative viability (CAL-12T; first compound 500 µM) was 0.469 and the relative viability (NCI-H838; first compound 5 µM) was 0.977. The relative viability (NCI-H838; first compound 15.81 µM) was 0.935, the relative viability (NCI-H838; first compound 50 µM) was 0.893 and the relative viability (NCI-H838; first compound 158.11 µM) was 0.844. For the same compound, the relative viability (NCI-H838; first compound 500 µM) was 0.912, the relative viability (NCI-H358; first compound 5 µM) was 0.569 and the relative viability (NCI-H358; first compound 15.81 µM) was 0.451. The relative viability (NCI-H358; first compound 50 µM) was 0.474, the relative viability (NCI-H358; first compound 158.11 µM) was 0.438 and the relative viability (NCI-H358; first compound 500 µM) was 0.56.
